Experimental data as given in the supplement of paper PMC10307832.

Experiments:
Experiment in all cases: relative viability (nuclei count vs DMSO), 5 days (fraction); higher = more cells survive
ChaGo-K-1 = system: ChaGo-K-1
Procedure, shortened: (§1)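 Five library-drug doses in √10 steps were combined with a fixed anchor-drug dose, or a single drug was given alone, by pin tool to lung cancer cell lines in 1536-well plates the day after seeding. Nuclei were stained and counted after 5 days. Relative viability is the nuclei count in treated wells over that in vehicle wells, taken as the median of duplicate plates.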

EMC-BAC-2 = system: EMC-BAC-2
Procedure, shortened: as §1

EPLC-272H = system: EPLC-272H
Procedure, shortened: as §1

HCC-366 = system: HCC-366
Procedure, shortened: as §1

HCC-44 = system: HCC-44
Procedure, shortened: as §1

HCC-78 = system: HCC-78
Procedure, shortened: as §1

HCC-827 = system: HCC-827
Procedure, shortened: as §1

LCLC-103H = system: LCLC-103H
Procedure, shortened: as §1

LK-2 = system: LK-2
Procedure, shortened: as §1

LOU-NH91 = system: LOU-NH91
Procedure, shortened: as §1

LU99A = system: LU99A
Procedure, shortened: as §1

LXF-289 = system: LXF-289
Procedure, shortened: as §1

NCI-H1563 = system: NCI-H1563
Procedure, shortened: as §1

NCI-H1666 = system: NCI-H1666
Procedure, shortened: as §1

NCI-H1975 = system: NCI-H1975
Procedure, shortened: as §1

NCI-H2085 = system: NCI-H2085
Procedure, shortened: as §1

NCI-H2126 = system: NCI-H2126
Procedure, shortened: as §1

NCI-H23 = system: NCI-H23
Procedure, shortened: as §1

NCI-H2405 = system: NCI-H2405
Procedure, shortened: as §1

NCI-H3122 = system: NCI-H3122
Procedure, shortened: as §1

RERF-LC-KJ = system: RERF-LC-KJ
Procedure, shortened: as §1

SK-LU-1 = system: SK-LU-1
Procedure, shortened: as §1

SW 1573 = system: SW 1573
Procedure, shortened: as §1

## Clc1ccc(Nc2nnc(Cc3ccncc3)c3ccccc23)cc1 [Vatalanib] + CS(=O)(=O)N1CCN(Cc2cc3nc(-c4cccc5[nH]ncc45)nc(N4CCOCC4)c3s2)CC1 [Pictilisib] (partner 1 µM)
ChaGo-K-1; first compound 0.04 µM
  relative viability: 0.418
ChaGo-K-1; first compound 0.1265 µM
  relative viability: 0.719
ChaGo-K-1; first compound 1.265 µM
  relative viability: 0.687
ChaGo-K-1; first compound 4 µM
  relative viability: 0.787
EMC-BAC-2; first compound 0.04 µM
  relative viability: 0.559
EMC-BAC-2; first compound 0.1265 µM
  relative viability: 0.556
EMC-BAC-2; first compound 0.4 µM
  relative viability: 0.572
EMC-BAC-2; first compound 1.265 µM
  relative viability: 0.533
EMC-BAC-2; first compound 4 µM
  relative viability: 0.525
EPLC-272H; first compound 0.04 µM
  relative viability: 0.35
EPLC-272H; first compound 0.1265 µM
  relative viability: 0.309
EPLC-272H; first compound 0.4 µM
  relative viability: 0.151
EPLC-272H; first compound 1.265 µM
  relative viability: 0.332
EPLC-272H; first compound 4 µM
  relative viability: 0.344
HCC-366; first compound 0.04 µM
  relative viability: 0.137
HCC-366; first compound 0.1265 µM
  relative viability: 0.196
HCC-366; first compound 0.4 µM
  relative viability: 0.131
HCC-366; first compound 1.265 µM
  relative viability: 0.0986
HCC-366; first compound 4 µM
  relative viability: 0.11
HCC-44; first compound 0.04 µM
  relative viability: 0.704
HCC-44; first compound 0.1265 µM
  relative viability: 0.684
HCC-44; first compound 0.4 µM
  relative viability: 0.63
HCC-44; first compound 1.265 µM
  relative viability: 0.644
HCC-44; first compound 4 µM
  relative viability: 0.613
HCC-78; first compound 0.04 µM
  relative viability: 0.199
HCC-78; first compound 0.1265 µM
  relative viability: 0.172
HCC-78; first compound 0.4 µM
  relative viability: 0.183
HCC-78; first compound 4 µM
  relative viability: 0.196
HCC-827; first compound 0.04 µM
  relative viability: 0.974
HCC-827; first compound 0.1265 µM
  relative viability: 0.872
HCC-827; first compound 0.4 µM
  relative viability: 0.925
HCC-827; first compound 1.265 µM
  relative viability: 1.06
HCC-827; first compound 4 µM
  relative viability: 0.863
LCLC-103H; first compound 0.04 µM
  relative viability: 0.6
LCLC-103H; first compound 0.1265 µM
  relative viability: 0.606
LCLC-103H; first compound 0.4 µM
  relative viability: 0.55
LCLC-103H; first compound 1.265 µM
  relative viability: 0.596
LCLC-103H; first compound 4 µM
  relative viability: 0.714
LK-2; first compound 0.04 µM
  relative viability: 0.531
LK-2; first compound 0.1265 µM
  relative viability: 0.561
LK-2; first compound 1.265 µM
  relative viability: 0.651
LK-2; first compound 4 µM
  relative viability: 0.569
LOU-NH91; first compound 0.04 µM
  relative viability: 0.512
LOU-NH91; first compound 0.1265 µM
  relative viability: 0.541
LOU-NH91; first compound 0.4 µM
  relative viability: 0.461
LOU-NH91; first compound 1.265 µM
  relative viability: 0.503
LOU-NH91; first compound 4 µM
  relative viability: 0.517
LU99A; first compound 0.04 µM
  relative viability: 0.34
LU99A; first compound 0.1265 µM
  relative viability: 0.306
LU99A; first compound 0.4 µM
  relative viability: 0.375
LU99A; first compound 1.265 µM
  relative viability: 0.306
LU99A; first compound 4 µM
  relative viability: 0.312
LXF-289; first compound 0.04 µM
  relative viability: 0.894
LXF-289; first compound 0.1265 µM
  relative viability: 0.737
LXF-289; first compound 0.4 µM
  relative viability: 0.748
LXF-289; first compound 1.265 µM
  relative viability: 0.702
LXF-289; first compound 4 µM
  relative viability: 0.747
NCI-H1563; first compound 0.04 µM
  relative viability: 0.634
NCI-H1563; first compound 0.1265 µM
  relative viability: 0.677
NCI-H1563; first compound 0.4 µM
  relative viability: 0.685
NCI-H1563; first compound 1.265 µM
  relative viability: 0.673
NCI-H1563; first compound 4 µM
  relative viability: 0.652
NCI-H1666; first compound 0.04 µM
  relative viability: 0.538
NCI-H1666; first compound 0.1265 µM
  relative viability: 0.334
NCI-H1666; first compound 0.4 µM
  relative viability: 0.33
NCI-H1666; first compound 1.265 µM
  relative viability: 0.512
NCI-H1666; first compound 4 µM
  relative viability: 0.499
NCI-H1975; first compound 0.04 µM
  relative viability: 0.277
NCI-H1975; first compound 0.1265 µM
  relative viability: 0.322
NCI-H1975; first compound 0.4 µM
  relative viability: 0.32
NCI-H1975; first compound 1.265 µM
  relative viability: 0.258
NCI-H1975; first compound 4 µM
  relative viability: 0.287
NCI-H2085; first compound 0.04 µM
  relative viability: 0.424
NCI-H2085; first compound 0.1265 µM
  relative viability: 0.524
NCI-H2085; first compound 0.4 µM
  relative viability: 0.44
NCI-H2085; first compound 1.265 µM
  relative viability: 0.469
NCI-H2085; first compound 4 µM
  relative viability: 0.438
NCI-H2126; first compound 0.04 µM
  relative viability: 0.488
NCI-H2126; first compound 0.1265 µM
  relative viability: 0.512
NCI-H2126; first compound 0.4 µM
  relative viability: 0.524
NCI-H2126; first compound 1.265 µM
  relative viability: 0.47
NCI-H2126; first compound 4 µM
  relative viability: 0.494
NCI-H23; first compound 0.04 µM
  relative viability: 0.45
NCI-H23; first compound 0.1265 µM
  relative viability: 0.412
NCI-H23; first compound 0.4 µM
  relative viability: 0.511
NCI-H23; first compound 1.265 µM
  relative viability: 0.436
NCI-H23; first compound 4 µM
  relative viability: 0.552
NCI-H2405; first compound 0.04 µM
  relative viability: 0.506
NCI-H2405; first compound 0.1265 µM
  relative viability: 0.429
NCI-H2405; first compound 1.265 µM
  relative viability: 0.352
NCI-H2405; first compound 4 µM
  relative viability: 0.493
NCI-H3122; first compound 0.04 µM
  relative viability: 0.66
NCI-H3122; first compound 0.1265 µM
  relative viability: 0.534
NCI-H3122; first compound 0.4 µM
  relative viability: 0.646
NCI-H3122; first compound 1.265 µM
  relative viability: 0.573
NCI-H3122; first compound 4 µM
  relative viability: 0.593
RERF-LC-KJ; first compound 0.04 µM
  relative viability: 0.486
RERF-LC-KJ; first compound 0.1265 µM
  relative viability: 0.579
RERF-LC-KJ; first compound 0.4 µM
  relative viability: 0.745
RERF-LC-KJ; first compound 1.265 µM
  relative viability: 0.422
RERF-LC-KJ; first compound 4 µM
  relative viability: 0.481
SK-LU-1; first compound 0.04 µM
  relative viability: 0.596
SK-LU-1; first compound 0.1265 µM
  relative viability: 0.581
SK-LU-1; first compound 0.4 µM
  relative viability: 0.523
SK-LU-1; first compound 1.265 µM
  relative viability: 0.535
SK-LU-1; first compound 4 µM
  relative viability: 0.527
SW 1573; first compound 0.04 µM
  relative viability: 0.596
SW 1573; first compound 0.1265 µM
  relative viability: 0.525
SW 1573; first compound 0.4 µM
  relative viability: 0.544
SW 1573; first compound 1.265 µM
  relative viability: 0.408
SW 1573; first compound 4 µM
  relative viability: 0.556
